Entries after “also recorded” stand apart in the source; their conditions may differ.
Experiments:
[1] = tested on: DLBCL patients; test: Phase I trial in DLBCL patients: glucocorticoid cohorts, dose-limiting toxicities (DLT); type: in vivo, human; conditions: for Safety assessment of cohort: DLBCL cohorts, antibody 5/15/60 μg/m2/d with glucocorticoid medication
Protocol: A Phase I clinical trial was performed in patients with various B-NHL including DLBCL to evaluate the CD19×CD3 bispecific antibody construct in DLBCL patients. Patients were treated for 4-8-weeks by continuous i.v. administration of the antibody with the following step-wise dosing regimen: first week at 5 μg/m^2/d, second week at 15 μg/m^2/d and for the remaining treatment period at 60 μg/m^2/d.
Two cohorts each with 6 DLBCL patients were enrolled. The two cohorts solely differed by the dose and schedule of the glucocorticoid medication administered at the beginning of the antibody infusion for mitigation of adverse events.
Out of the twelve patients, 5 were male and 7 female. The median age was 57 years (range from 24 to 78 years). Patients had received a median of 4 prior regimens (range from 2-6). All patients had been exposed to rituximab. Eight of the 12 patients had undergone ASCT. International prognostic index (IPI) at screening ranged from 1 to 3 with a median of 2.

[2] = cited from earlier work
[3] = tested on: patients treated with blinatumomab; test: Dexamethasone prophylaxis to prevent neurological adverse events during blinatumomab treatment; type: in vivo, human; conditions: Patient 108-010, trial 103-104, DLBCL; as other patients (20 mg dexamethasone 12 h and 1 h before) plus 100 mg prednisolone one hour before start of infusion
Protocol: Besides the therapeutic use of dexamethasone to mitigate neurological adverse events, dexamethasone was also used as prophylaxis in order to prevent neurological adverse events.
(§1) Each of the following 5 patients in trial 103-104 (all with DLBCL) were treated with blinatumomab continuous infusion at 5 μg/m2/d for the 1st week, then 15 μg/m2/d for the 2nd week, and then 60 μg/m2/d for the remaining treatment period that could an additional 2-6 weeks.

[4] = tested on: lymphoma target cells; conditions: cited from earlier work
[5] = tested on: patients with B cell malignancies; conditions: cited from earlier work
[6] = tested on: patients with B-NHL; test: Neurological/psychiatric adverse events under blinatumomab continuous infusion; type: in vivo, human
Protocol: For the clinical trials in connection with the application of a CD19×CD3 bispecific single chain antibody for the treatment of tumorous mass of lymph node tissue and/or extranodal lymphoma caused by DLBCL, the present inventors had to develop a treatment regime which was efficient and would be well tolerated by most of the patients. To this end, the present inventors applied a step-wise application of a CD19×CD3 bispecific single chain antibody in that 5/15/60 μg/m^2/24 h was administered to patients. […] Also contemplated in the step-wise administration of a CD19×CD3 bispecific single chain antibody is a treatment regime using two of the dosages, such as 5/15 μg/m^2/24 h, 5/60 μg/m^2/24 h, or 15/60 μg/m^2/24 h for the duration of the patient's treatment. The appropriate dosage can be selected by the clinician on the basis of efficacy, tolerability and safety with a minimum of adverse effects in the patient.

[7] = tested on: malignant CD19 positive lymphocytes; test: Tumour response to blinatumomab in patients given dexamethasone prophylaxis; type: in vivo, human
Excerpt: By “complete response” is intended an absence of clinically detectable disease with normalization of any previously abnormal imaging studies such as radiographic studies. Such a response preferably persists for at least 4 to 8 weeks, sometimes 6 to 8 weeks or more than 8, 10, 12, 14, 16, 18 or 20 weeks or longer, following treatment according to the invention. Alternatively, an improvement in the disease may be categorized as being a partial response.
Detailed remission and response definitions for NHL patients are used according to Cheson et al., 1999, J Clin Oncol. April; 17(4):1244
By “partial response” is intended at least about a 50% decrease in all measurable tumor burden (i.e., the number of malignant cells present in the patient, or the measured bulk of tumor masses) in the absence of new lesions and persisting for 4 to 8 weeks or more than 8, 10, 12, 14, 16, 18 or 20 weeks or longer. A “complete response” does, however, not necessarily indicate that a disease has been cured, since a patient may relapse. However, if so, the patient can again be treated with a composition comprising a CD19×CD3 bispecific antibody as described herein.
as §1

[8] = non-Hodgkin's lymphoma patients

## C[C@@H]1C[C@H]2[C@@H]3CCC4=CC(=O)C=C[C@]4(C)[C@@]3(F)[C@@H](O)C[C@]2(C)[C@@]1(O)C(=O)CO [Dexamethasone]
[1]
  Safety assessment of cohort: considered safe
[1]; prophylactic dexamethasone cohort: 3×8 mg at start of infusion or dose increase, 3×6 mg or 3×4 mg on following 2 days, first two patients
  DLT: one of the first two patients having a DLT
[1]; “early dexamethasone” schedule: 20 mg at −12 to −6 hours and −1 hour, 3×8 mg during following 2 days, total of 5 DLBCL patients
  DLT: no DLT was observed

## C[C@]12CCC(=O)C=C1CC[C@@H]1[C@@H]2[C@@H](O)C[C@@]2(C)[C@H]1CC[C@]2(O)C(=O)CO [Hydrocortisone]
[2]
  Biologic half-life: 8-12 hrs

## C[C@H]1C[C@@H]2[C@H]([C@@H](O)C[C@@]3(C)[C@H]2CC[C@]3(O)C(=O)CO)[C@@]2(C)C=CC(=O)C=C12 [Methylprednisolone]
[2]
  Biologic half-life: 18-36 hrs

## C[C@]12C=CC(=O)C=C1CC[C@@H]1[C@@H]2[C@@H](O)C[C@@]2(C)[C@H]1CC[C@]2(O)C(=O)CO [Prednisolone]
[2]
  Biologic half-life: 18-36 hrs
[1]
  Safety assessment of cohort: considered safe
[1]; prednisolone DLBCL cohort: 100 mg prednisolone 1 hour prior to start, antibody 5/15/60 μg/m2/d
  DLT: just one DLT (reversible CNS event grade 3)
[3]
  Discontinuation due to neurological/psychiatric adverse events: did not have to discontinue

## C[C@]12C=CC(=O)C=C1CC[C@@H]1[C@@H]2C(=O)C[C@@]2(C)[C@H]1CC[C@]2(O)C(=O)CO [Prednisone]
[2]
  Biologic half-life: 18-36 hrs

## Blinatumomab
[4]; continuously administered over four weeks, non-Hodgkin's lymphoma patients
  Dose leading to elimination of lymphoma target cells in blood (doses as low as): 0.005 milligrams per square meter per day
[4]; dose level 0.06 milligrams/m^2/d
  Patients with tumor regression: all seven patients
[4]; [8]
  Dose level at which partial and complete tumor regressions were first observed: 0.015 milligrams/m^2/d
  Tumor cells in bone marrow and liver: clearance of tumor cells from bone marrow and liver
[5]; escalating doses as bolus infusions, B cell malignancies, retrospective analysis
  Patients with early neurological reaction (confusion, ataxia, speech disorder, disorientation): 7 out of 22
[5]; patient with B-CLL, 20 minute-infusions of 3 and 10 microgram, WO 99/54440
  Cytokine release: release of TNF, IL-6 and IL-8 has been found
[6]; DLBCL patients, step-wise 5/15/60 μg/m2/24 h
  Adverse effects, in particular neurological/psychiatric events, with step-wise application: reduced in number, ameliorated and even prevented
[6]; Patient 109-036, follicular lymphoma, starting day 11, four days after step from 5 to 60 μg/m2/d
  Neurological adverse events: neurological adverse events (tremor and apraxia)
[6]; Patient 109-038, DLBCL, 5/15/60 μg/m2/d, day 15
  Neurological adverse events: developed intention tremor
[6]; Patient 109-039, MCL, 5/15/60 μg/m2/d, day 17
  Neurological adverse events: developed tremor and slight speech disturbance
[6]; Patient 135-001, DLBCL, day 4 after step to 60 μg/m2/d, too fast to intervene with dexamethasone
  Treatment stop due to neurological/psychiatric adverse events: had to stop due to neurological/psychiatric adverse events
[6]; Patient 153-002, MCL, 5/15/60 μg/m2/d, day 4
  Neurological adverse events: developed slight speech problems
[6]; Patient 153-002, MCL, day 22, paresis disappeared without intervention
  Treatment stop due to neurological adverse event: had to stop treatment due to paresis
[7]; DLBCL patients with “early dexamethasone” schedule, Phase I
  Tumour response: objective responses have been observed
[7]; Patient 155-001, relapsed ALL, blinatumomab 15 μg/m2/d 16 days, dexamethasone prophylaxis 8 mg
  Tumour response: complete remission
[7]; patient with ALL, blinatumomab 15 μg/m2/d, dexamethasone prophylaxis days 1-3
  Tumour response: complete remission
[7]; trial 103-104, DLBCL, blinatumomab 5/15/60 μg/m2/d, 20 mg dexamethasone prophylaxis, one patient per block
  Tumour response of the lymphoma: objective response; also recorded: complete remission

Reference: patent US10130638B2, “Prevention of adverse effects caused by CD3 specific binding domains” (AMGEN RESEARCH (MUNICH) GMBH, priority 2010, dated 2018)
